{"source": "patent US20100137449A1", "about": "“SUBSTITUTED 1,3-CYCLOPENTADIONE MULTI-TARGET PROTEIN KINASE MODULATORS OF CANCER, ANGIOGENESIS AND THE INFLAMMATORY PATHWAYS ASSOCIATED THEREWITH” (METAPROTEOMICS, LLC, priority 2007, published 2010)", "experiment_in_all_cases": "KinaseProfiler Assay", "key": {"Itk(h)": {"target": "T1, Itk(h) (Homo sapiens, UniProt Q08881)", "T1 sequence (Q08881 1-620)": "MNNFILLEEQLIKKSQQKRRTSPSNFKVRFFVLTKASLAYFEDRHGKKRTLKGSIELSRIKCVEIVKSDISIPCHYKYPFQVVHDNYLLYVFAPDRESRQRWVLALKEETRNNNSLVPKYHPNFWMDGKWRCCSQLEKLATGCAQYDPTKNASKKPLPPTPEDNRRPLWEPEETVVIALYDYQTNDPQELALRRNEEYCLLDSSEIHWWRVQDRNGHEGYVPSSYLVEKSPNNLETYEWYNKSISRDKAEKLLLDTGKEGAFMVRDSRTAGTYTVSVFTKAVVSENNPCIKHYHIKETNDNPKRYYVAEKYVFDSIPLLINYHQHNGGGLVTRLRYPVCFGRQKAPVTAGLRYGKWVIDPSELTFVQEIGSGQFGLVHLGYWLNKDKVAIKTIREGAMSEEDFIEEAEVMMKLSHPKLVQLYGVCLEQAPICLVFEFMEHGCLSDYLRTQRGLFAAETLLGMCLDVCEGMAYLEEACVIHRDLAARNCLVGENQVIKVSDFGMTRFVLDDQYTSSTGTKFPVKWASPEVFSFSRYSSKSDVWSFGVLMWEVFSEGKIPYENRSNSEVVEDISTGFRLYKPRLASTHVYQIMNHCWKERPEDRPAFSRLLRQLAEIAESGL"}, "MRCKβ(h)": {"target": "MRCKβ(h) (Homo sapiens, UniProt Q9Y5S2)", "sequence (Q9Y5S2 whole entry)": "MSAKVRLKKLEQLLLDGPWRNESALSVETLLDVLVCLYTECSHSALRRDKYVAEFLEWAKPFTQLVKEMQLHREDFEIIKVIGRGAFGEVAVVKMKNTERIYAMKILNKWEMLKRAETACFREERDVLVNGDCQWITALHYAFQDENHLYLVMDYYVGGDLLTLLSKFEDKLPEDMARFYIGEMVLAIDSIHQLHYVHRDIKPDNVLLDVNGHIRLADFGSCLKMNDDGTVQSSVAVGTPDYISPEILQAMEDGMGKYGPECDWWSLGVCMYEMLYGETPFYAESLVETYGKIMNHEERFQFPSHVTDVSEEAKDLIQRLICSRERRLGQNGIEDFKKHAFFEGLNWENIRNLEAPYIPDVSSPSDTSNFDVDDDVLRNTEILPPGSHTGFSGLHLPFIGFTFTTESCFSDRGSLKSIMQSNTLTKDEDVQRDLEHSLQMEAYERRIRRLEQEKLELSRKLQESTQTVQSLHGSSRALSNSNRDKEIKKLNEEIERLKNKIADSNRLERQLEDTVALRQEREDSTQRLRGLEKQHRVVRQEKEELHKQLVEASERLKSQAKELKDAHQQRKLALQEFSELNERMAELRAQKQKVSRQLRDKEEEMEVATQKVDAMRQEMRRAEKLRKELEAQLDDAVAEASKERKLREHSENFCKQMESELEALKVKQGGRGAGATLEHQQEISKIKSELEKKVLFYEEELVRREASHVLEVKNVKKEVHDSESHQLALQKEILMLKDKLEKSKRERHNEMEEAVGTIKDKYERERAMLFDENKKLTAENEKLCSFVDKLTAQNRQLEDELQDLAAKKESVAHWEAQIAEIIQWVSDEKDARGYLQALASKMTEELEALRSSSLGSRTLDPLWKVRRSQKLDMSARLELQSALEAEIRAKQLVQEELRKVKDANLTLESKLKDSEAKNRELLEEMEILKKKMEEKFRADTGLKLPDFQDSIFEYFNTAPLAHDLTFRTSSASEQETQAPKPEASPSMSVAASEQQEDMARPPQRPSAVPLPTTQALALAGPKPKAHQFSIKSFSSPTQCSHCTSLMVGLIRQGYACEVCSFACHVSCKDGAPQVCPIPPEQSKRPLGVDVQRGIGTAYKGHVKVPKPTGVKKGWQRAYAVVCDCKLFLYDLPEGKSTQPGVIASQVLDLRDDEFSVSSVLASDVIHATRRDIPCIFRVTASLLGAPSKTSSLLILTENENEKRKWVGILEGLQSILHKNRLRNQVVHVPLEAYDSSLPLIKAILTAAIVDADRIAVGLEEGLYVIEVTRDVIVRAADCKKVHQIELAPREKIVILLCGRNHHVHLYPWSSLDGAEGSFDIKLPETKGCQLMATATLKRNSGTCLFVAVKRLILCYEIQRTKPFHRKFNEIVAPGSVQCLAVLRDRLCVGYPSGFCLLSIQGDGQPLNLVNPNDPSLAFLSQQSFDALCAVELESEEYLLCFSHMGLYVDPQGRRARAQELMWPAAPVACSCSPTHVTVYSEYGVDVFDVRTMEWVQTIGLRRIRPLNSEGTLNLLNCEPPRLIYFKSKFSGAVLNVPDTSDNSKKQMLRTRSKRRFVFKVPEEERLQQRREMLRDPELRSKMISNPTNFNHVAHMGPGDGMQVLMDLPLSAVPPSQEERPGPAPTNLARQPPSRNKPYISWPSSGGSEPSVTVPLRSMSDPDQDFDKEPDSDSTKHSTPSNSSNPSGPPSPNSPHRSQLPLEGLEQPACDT"}, "Haspin(h)": {"target": "T2, Haspin(h) (Homo sapiens, UniProt Q8TF76)", "T2 sequence (Q8TF76 1-798)": "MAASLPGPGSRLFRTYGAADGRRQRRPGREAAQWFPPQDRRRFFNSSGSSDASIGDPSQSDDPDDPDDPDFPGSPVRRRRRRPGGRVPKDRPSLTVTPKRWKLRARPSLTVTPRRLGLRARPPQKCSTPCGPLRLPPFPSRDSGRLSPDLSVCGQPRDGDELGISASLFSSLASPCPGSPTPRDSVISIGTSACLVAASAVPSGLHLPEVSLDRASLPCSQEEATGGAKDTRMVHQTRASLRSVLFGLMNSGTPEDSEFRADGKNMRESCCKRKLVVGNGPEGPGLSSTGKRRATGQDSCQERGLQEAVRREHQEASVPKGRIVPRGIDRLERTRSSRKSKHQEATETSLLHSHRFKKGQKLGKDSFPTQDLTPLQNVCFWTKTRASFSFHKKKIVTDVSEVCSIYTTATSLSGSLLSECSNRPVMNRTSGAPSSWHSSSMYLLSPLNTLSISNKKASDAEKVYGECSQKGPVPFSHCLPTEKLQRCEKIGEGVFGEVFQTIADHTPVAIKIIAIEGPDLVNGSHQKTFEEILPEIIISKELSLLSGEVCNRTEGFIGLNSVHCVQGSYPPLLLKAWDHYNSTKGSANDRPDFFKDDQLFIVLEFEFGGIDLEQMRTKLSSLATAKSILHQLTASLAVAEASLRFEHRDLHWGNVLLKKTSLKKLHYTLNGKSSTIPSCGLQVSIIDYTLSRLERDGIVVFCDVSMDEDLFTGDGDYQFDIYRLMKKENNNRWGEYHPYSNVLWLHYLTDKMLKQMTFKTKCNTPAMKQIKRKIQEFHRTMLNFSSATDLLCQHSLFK"}, "ULK2(h)": {"target": "T3, ULK2(h) (Homo sapiens, UniProt Q8IYT8)", "T3 sequence (Q8IYT8 1-1036)": "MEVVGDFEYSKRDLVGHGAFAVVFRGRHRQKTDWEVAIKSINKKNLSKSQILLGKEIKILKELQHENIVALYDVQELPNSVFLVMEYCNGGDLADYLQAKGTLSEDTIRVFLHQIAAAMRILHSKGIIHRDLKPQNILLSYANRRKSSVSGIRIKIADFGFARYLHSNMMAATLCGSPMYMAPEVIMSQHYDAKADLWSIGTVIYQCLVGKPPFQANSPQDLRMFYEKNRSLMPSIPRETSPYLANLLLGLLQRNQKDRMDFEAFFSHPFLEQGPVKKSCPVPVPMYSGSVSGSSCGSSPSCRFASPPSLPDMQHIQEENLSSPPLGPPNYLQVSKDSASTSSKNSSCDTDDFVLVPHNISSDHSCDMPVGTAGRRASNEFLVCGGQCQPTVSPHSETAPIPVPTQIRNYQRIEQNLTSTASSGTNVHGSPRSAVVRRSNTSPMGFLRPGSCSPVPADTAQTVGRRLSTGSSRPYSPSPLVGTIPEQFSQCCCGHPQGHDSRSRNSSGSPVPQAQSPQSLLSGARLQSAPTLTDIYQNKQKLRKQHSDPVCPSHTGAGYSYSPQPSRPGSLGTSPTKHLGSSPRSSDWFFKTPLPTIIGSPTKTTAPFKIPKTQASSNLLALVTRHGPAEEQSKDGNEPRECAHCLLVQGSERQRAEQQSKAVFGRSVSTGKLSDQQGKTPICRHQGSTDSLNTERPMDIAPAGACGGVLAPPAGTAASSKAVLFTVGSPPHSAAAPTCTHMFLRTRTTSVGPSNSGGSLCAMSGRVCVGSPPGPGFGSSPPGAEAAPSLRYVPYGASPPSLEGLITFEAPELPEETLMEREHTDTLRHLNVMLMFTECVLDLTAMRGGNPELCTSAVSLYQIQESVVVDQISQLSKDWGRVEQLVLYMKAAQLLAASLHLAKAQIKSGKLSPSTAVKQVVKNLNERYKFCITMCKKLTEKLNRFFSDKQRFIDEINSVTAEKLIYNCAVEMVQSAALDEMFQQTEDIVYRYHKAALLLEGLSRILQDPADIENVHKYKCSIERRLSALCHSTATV"}, "CDK2/cyclinA(h)": {"target": "CDK2/cyclinA(h) (Homo sapiens, UniProt P24941)"}}, "data": [{"smiles": "CC(C)CCC(=O)[C@]1(O)C(O)=C(C(=O)C(C)C)C(=O)[C@H]1CCC(C)C", "note": "[TH2, tetrahydroiso-cohumulone]", "values": [{"measurement": "kinase inhibition", "setting": "Itk(h); 1 μg/ml", "value": "101% of control"}, {"measurement": "kinase inhibition", "setting": "Itk(h); 5 μg/ml", "value": "103% of control"}, {"measurement": "kinase inhibition", "setting": "Itk(h); 25 μg/ml", "value": "87% of control"}, {"measurement": "kinase inhibition", "setting": "Itk(h); 50 μg/ml", "value": "82% of control"}, {"measurement": "kinase inhibition", "setting": "Itk(h); 100 μg/ml", "value": "87% of control"}, {"measurement": "kinase inhibition", "setting": "MRCKβ(h); 1 μg/ml", "value": "110% of control"}, {"measurement": "kinase inhibition", "setting": "MRCKβ(h); 5 μg/ml", "value": "114% of control"}, {"measurement": "kinase inhibition", "setting": "MRCKβ(h); 25 μg/ml", "value": "109% of control"}, {"measurement": "kinase inhibition", "setting": "MRCKβ(h); 50 μg/ml", "value": "104% of control"}, {"measurement": "kinase inhibition", "setting": "MRCKβ(h); 100 μg/ml", "value": "99% of control"}, {"measurement": "kinase inhibition", "setting": "Haspin(h); 1 μg/ml", "value": "105% of control"}, {"measurement": "kinase inhibition", "setting": "Haspin(h); 5 μg/ml", "value": "95% of control"}, {"measurement": "kinase inhibition", "setting": "Haspin(h); 25 μg/ml", "value": "90% of control"}, {"measurement": "kinase inhibition", "setting": "Haspin(h); 50 μg/ml", "value": "76% of control"}, {"measurement": "kinase inhibition", "setting": "Haspin(h); 100 μg/ml", "value": "49% of control"}, {"measurement": "kinase inhibition", "setting": "ULK2(h); 1 μg/ml", "value": "102% of control"}, {"measurement": "kinase inhibition", "setting": "ULK2(h); 5 μg/ml", "value": "52% of control"}, {"measurement": "kinase inhibition", "setting": "ULK2(h); 25 μg/ml", "value": "77% of control"}, {"measurement": "kinase inhibition", "setting": "ULK2(h); 50 μg/ml", "value": "106% of control"}, {"measurement": "kinase inhibition", "setting": "ULK2(h); 100 μg/ml", "value": "105% of control"}, {"measurement": "kinase inhibition", "setting": "CDK2/cyclinA(h); 1 μg/ml", "value": "114% of control"}, {"measurement": "kinase inhibition", "setting": "CDK2/cyclinA(h); 5 μg/ml", "value": "124% of control"}, {"measurement": "kinase inhibition", "setting": "CDK2/cyclinA(h); 25 μg/ml", "value": "95% of control"}, {"measurement": "kinase inhibition", "setting": "CDK2/cyclinA(h); 50 μg/ml", "value": "98% of control"}, {"measurement": "kinase inhibition", "setting": "CDK2/cyclinA(h); 100 μg/ml", "value": "87% of control"}]}]}
